Experimental data as given in patent US9505792B2, “Forms of cidofovir” (Johnson Matthey Public Limited Company, priority 2011, dated 2016).

Assay: Occupational exposure assessment (full monograph) of the final product
Details: final crystalline cidofovir dihydrate product; remains within category band 5 (safebridge category 3)
Excerpt: A full monograph for the final crystalline cidofovir dihydrate product (compound 9) has been completed and it was confirmed that, with an OEL of 0.6 μgm^−3, the product remains within category band 5 (safebridge category 3).

- OEL: 0.6 μgm^−3
Compound: Nc1ccn(C[C@@H](CO)OCP(=O)(O)O)c(=O)n1 [compound 9, cidofovir dihydrate]
